This note sets out measurements from patent US4081531A, “Antibiotic mimosamycin” (priority 1975, dated 1978).

≈ marks a conversion by molar mass, not a printed value.

For the experiment, the system named is Mycobacterium tuberculosis SMR. The experiment in a line: Antimicrobial activity (MIC) against tubercle bacilli. The format is cell-based. Conditions: 672 h.

One may read the MIC as the least concentration at which growth counts as inhibited. In the case of `COC1=C(C)C(=O)c2cc(=O)n(C)cc2C1=O` [mimosamycin], the minimum inhibitory concentration (MIC) was 1.56 µg/mL (≈ 6.69 µM).
